This is an account of results in patent publication US12565522B2, “Micropeptide HMMW and application thereof” (NANJING ANJI BIOTECHNOLOGY CO., LTD., priority 2019, dated 2026).

No end group written: not given here.

Test in all cases: transwell migration test
Holding throughout (assay type): cell-based, human
What all share (settings): 24 h

The test system of test [1] is A549 cells of lung cancer.
The test system of test [2] is TE13 cells of esophageal squamous cell carcinoma.
Test [3] deals with SW579 cells of thyroid cancer.
Test [4] concerns UOK262 cells of kidney cancer.
Test [5] deals with MDA-MB-231 cells of breast cancer.
Test [6] concerns A431 cells of skin cancer.
Test [7] has as its system SCC4 cells of head and neck cancer.

Take “MGSTYNKRHSPRRSSVEAKMQSTSCSVRKSSTVTAWPAVVLLLSWGQRRGG-OH [HMMW-III]”: the migration inhibition rate in test [1] (dose 1 μM) amounted to 33.01%; in test [1] (dose 4 μM), 54.93%; in test [1] (dose 16 μM), 72.42%; in test [2] (dose 1 μM) it was 22.76%; in test [2] (dose 4 μM), 41.29%; in test [2] (dose 16 μM) it was 65.32%. In addition, the migration inhibition rate was found to be 18.83% in test [3] (dose 1 μM); 50.04% in test [3] (dose 4 μM); 71.92% in test [3] (dose 16 μM); 16.39% in test [4] (dose 1 μM); 41.38% in test [4] (dose 4 μM); 70.47% in test [4] (dose 16 μM). For the same substance, the migration inhibition rate in test [5] (dose 1 μM) came to 27.06%; in test [5] (dose 4 μM), 51.34%; in test [5] (dose 16 μM), 74.38%; in test [6] (dose 1 μM), 32.13%; in test [6] (dose 4 μM), 54.27%; in test [6] (dose 16 μM) it was 72.21%. Moreover, the results for the migration inhibition rate in test [7] (dose 1 μM), in test [7] (dose 4 μM) and in test [7] (dose 16 μM) were 16.81%, 43.94% and 74.01%, respectively.
In the case of “MGSTYNPGFSPRRSSVEAKMQSTSCSVRKSSTVTAWPAVVLLLSWGQRRGG-OH [HMMW-V]”, the migration inhibition rate in test [1] (dose 1 μM) amounted to 35.01%; in test [1] (dose 4 μM), 53.91%; in test [1] (dose 16 μM) it was 71.36%; in test [2] (dose 1 μM), 23.74%; in test [2] (dose 4 μM), 42.23%; in test [2] (dose 16 μM) it was 64.31%. The migration inhibition rate in test [3] (dose 1 μM) came to 17.45%; in test [3] (dose 4 μM) it was 51.13%; in test [3] (dose 16 μM), 71.93%; in test [4] (dose 1 μM) it was 18.29%; in test [4] (dose 4 μM), 42.28%; in test [4] (dose 16 μM) it was 72.43%. Also, the migration inhibition rate in test [5] (dose 1 μM) worked out at 28.07%; in test [5] (dose 4 μM), 50.24%; in test [5] (dose 16 μM) it was 74.18%; in test [6] (dose 1 μM), 30.14%; in test [6] (dose 4 μM), 54.12%; in test [6] (dose 16 μM), 70.12%. For the same substance, the migration inhibition rate in test [7] (dose 1 μM) was 18.36%; in test [7] (dose 4 μM), 44.67%; in test [7] (dose 16 μM), 71.04%.
